{"source": "patent US6280760A", "about": "“Peptide-coated implants and methods for producing same” (Merck Patent Gesellschaft mit beschraenkter Haftung, priority 1997, dated 2001)", "system": "MC3T3 H1 osteoblasts", "experiment": "Adhesion of MC3T3 H1 osteoblasts to PMMA moulded articles coated with acrylate RGD peptides", "assay_type": "cell-based, mouse", "method": "For the covalent coupling of these peptides to polymerized PMMA (polymethyl methacrylate) surfaces, appropriate shaped articles of differing porosity (diameter: 10 mm; height: 2 mm) were prepared from three different PMMA components.\nBone cement based on PMMA (Merck KGaA, Germany, Licence No. 5181.00.00) corresponding to the product description (40 g of powder+20 ml of liquid).\n10 g of PMMA/PHEMA (polyhydroxyethyl methacrylate) granules, particle size 0.5-0.6 mm (Biomet) were mixed with 1.3 ml of an HEMA solution (68.6% HEMA, 29.4% TEGMA [triethylene glycol dimethacrylate], 2% tBPB, [tert-butyl peroxybenzoate]) and adhered by means of this to a porous support material.\n10 g of PMMA granules (Plex Y7H, Rohm, Germany), particle fraction 0.7-2 mm were mixed with 1.5 ml of a methyl methacrylate (MMA) solution (68.6% MMA, 29.4% TEGMA, 2% tBPB) and adhered by this means to a porous support material.\nFor the covalent coupling of the acrylate peptides to the prepolymerized PMMA moulded articles, stock solutions of the acrylate peptides 1, 2, 3 and 4 were prepared in a final concentration of 100 μM in each case in DMSO/0.2% camphorquinone (w/v). Then, by dilution with isopropanol/0.2% camphorquinone (w/v), concentration series having final peptide concentrations of 0.1 nM, 1 nM, 10 nM, 100 nM, 1 μM and 10 μM in each case were prepared. The moulded articles were incubated in daylight and at room temperature for 2 hours and then stored at 4° C. in the dry state. Before use, the samples were washed with PBS, pH 7.4, to remove unbound peptides and stored at 4° C. in PBS, pH 7.4, overnight.\nBy addition of 250 μl/moulded article each of a 5% strength BSA solution in PBS, pH 7.4, and subsequent incubation for 2 hours at room temperature and washing once with PBS, pH 7.4, non-specific cell-binding sites were blocked.\nSubsequently, the adhesion of osteoblasts of the MC3T3 H1 line, obtained from the calvaria of neonatal mice (Heermeier et al., 1995, Cells and Materials 5: 309-321) to the above-described peptide-coated surfaces was investigated.\nThe MC3T3 H1 osteoblasts were inoculated at an inoculation density of 48,000 cells/cm^2, as described above, in Costar 48-well plates, with PMMA moulded articles coated with RGD peptide and then incubated for 1 hour at 37° C., 95% atmospheric humidity and 5% CO2. Cells non-adhered during the experiment were then washed off twice with PBS, pH 7.4.\nThe quantification of the adhered cells was carried out indirectly via the activity determination of the cellular enzyme N-acetylhexosaminidase using an appropriate standard curve according to the method of Landegren (1984, J. Immunol. Methods, 67: 379-388).", "data": [{"substance": "cyclo(RGDf[acrylic-ahx-tEG-K]) [acrylate peptide 3]", "values": [{"measurement": "stimulation of cell adhesion (in words)", "setting": "PMMA carriers, comparison of anchor lengths", "value": "higher activity"}, {"measurement": "cell adsorption rates increased in comparison with uncoated surfaces", "setting": "bone cement shaped articles, FIG. 8", "value": "5-15 fold"}, {"measurement": "maximal adsorption rates", "setting": "different PMMA moulded articles, 48,000 cells/cm^2, 1 hour", "value": "80-100%"}, {"measurement": "EC50", "setting": "different PMMA moulded articles, read-out: half-maximal cell bindings, RGD peptide concentration in the coating solution", "value": "0.001 to 10", "unit": "µM"}, {"measurement": "cell adsorption rates increased in comparison with uncoated surfaces", "setting": "porous PMMA/PHEMA granule shaped articles, FIG. 9", "value": "2-5 fold"}, {"measurement": "cell adsorption rates increased in comparison with uncoated surfaces", "setting": "porous Plex Y7H granule shaped articles, FIG. 10", "value": "2-3 fold"}]}]}
